# Reference: patent US11167015B2, “Arginine and its use as a T cell modulator” (INSTITUTE FOR RESEARCH IN BIOMEDICINE, priority 2016, dated 2021)
# Assays:
# mTOR = test: Analysis of phosphorylation levels of 4E-BP and S6K1; type: cell-based, human; settings: 3 mM L-arginine supplementation, 4 days activated
# Protocol: Naïve CD4^+ T cells were activated with plate-bound antibodies to CD3 and CD28. Four days after activation, cells were lysed and analyzed by Western blot with the following antibodies obtained from Cell Signaling Technology. Phospho-p70 S6K(Thr389) #9205; p70 S6 Kinase #9202; Phospho-4E-BP1 (Thr37/46) #2855; 4E-BP1 #9644. Rapamycin (Sigma) was used at 100 nM.
# activated CD4+ T cells = test: IL-2 withdrawal assay and assessment of cell viability, CD4+ T cells; type: cell-based, human
# Protocol: (§1) Naïve CD4 T cells were activated with plate-bound CD3 and CD28 antibodies. 48 h after activation IL-2 was added to culture media (500 U ml^−1). After a further 3 days of culturing, cells were washed, counted and equal cell numbers were plated in medium devoid of IL-2. The withdrawal medium was no longer supplemented with e.g. L-arginine. Cell viability was assessed with annexin V.
# natural killer cells = settings: oral administration, healthy volunteers; cited from earlier work
# human CD4+ T cell clones = test: Survival experiment with CRISPR/Cas9 gene knockout T cell clones; type: cell-based
# Protocol: as §1
# Two to four short guide RNAs (sgRNAs) (Table 1) per gene were designed using the online tool provided by the Zhang laboratory (tools.genome-engineering.org). Oligonucleotide pairs with BsmBI-compatible overhangs were annealed and cloned into the lentiviral vector lentiCRISPR v2 (Addgene plasmid #52961) (Sanjana et al., 2014). […]
# To screen for clones with disrupted target genes, individual clones were lysed with sample buffer containing 80 mM Tris pH 6.8, 10.5% glycerol, 2% SDS and 0.00004% Bromophenol blue. Lysate of 100,000 cells was separated by SDS-PAGE followed, blotted onto PVDF membranes and analyzed with antibodies to target proteins, Baz1B (Abeam, ab50850), PSIP1 (Bethyl, A300-848A), DDX17 (Abeam, ab180190), PTPN6 (Santa Cruz, sc-287) or TSN (Sigma, HPA059561). […] To screen for clones with disrupted B2M, single cell clones were stained with an antibody to MHC-1 (eBioscience, HLA-ABC-FITC) and analyzed by flow cytometry.
# mouse CD8+ OT-I T cells = test: Survival of activated OT-I T cells in vitro after IL-2 withdrawal; type: cell-based; settings: L-arginine-supplemented medium 4 days
# Excerpt: FIG. 7. CD8+ T cells with increased L-arginine levels display improved anti-tumor activity in vivo. (A) Survival of activated mouse CD8+OT-I T cells (4 d) after IL-2 withdrawal. Data points represent the difference between the percentage of living T cells from cultures performed in L-Arg medium or Ctrl medium; n=11. (B) CD90.1+CD45.1/2+ and CD90.1+CD45.1+ naïve CD8+ OT-I T cells were activated for 4 days in Ctrl medium or L-Arg medium, respectively. Equal numbers of the congenically marked activated OT-I cells were co-transferred into Cd3e−/− mouse and the number of living T cells was measured in pooled spleen and lymph nodes at the indicated time points; n=3 at each time point. (C) Naïve CD8+ OT-I T cells were activated with CD3+CD28 antibodies in L-Arg medium or control (Ctrl) medium. Five days after activation, the percentage of Tcm-like cells (CD44hi, CD62L+) was measured by flow cytometry; n=15. (D) Naïve OT-I CD8+ T cells were activated in L-Arg medium or Ctrl medium and IFN-γ was quantified in culture supernatants after 5 days; n=15. (E) Same as in (D) but T cells were re-activated on day 5 day with PMA/Ionomycin; n=15. (F, G) B16.OVA melanoma cells were injected into C57BL/6 mice and tumors were allowed to grow for 10 days. […] Tumor burden (F) and survival (G) were assessed over time. […] In (G) *p<0.05 as determined by log-rank test comparison between curves. […]
smiles,measurement,setting,value
N=C(N)NCCC[C@H](N)C(=O)O [L-arginine],phosphorylation levels of two targets of mTOR (p70 S6K1 and 4E-BP),mTOR,did not change
same,time of addition after T cell activation at which most effective on survival,activated CD4+ T cells; L-Arg 3 mM added at indicated time points,≤ 48 h
same,survival of activated CD4+ T cells in the absence of exogenous cytokines,"activated CD4+ T cells; metabolites 3 mM, except for spermidine 0.1 mM, 5 days after IL-2 withdrawal",significantly increased
same,numbers and activity of natural killer cells,natural killer cells,enhance the numbers and activity of natural killer cells
same,"L-arginine's beneficial effect on T cell survival in BAZ1B, PSIP1 and TSN knockout clones","human CD4+ T cell clones; knockout of BAZ1B, PSIP1 and TSN",significantly reduced
same,effect of L-arginine on T cell survival in PTPN6 (Shp-1) or B2M knockout clones,human CD4+ T cell clones; knockout of PTPN6 (Shp-1) or B2M,did not alter
same,survival capacity of OT-I T cells in vitro,mouse CD8+ OT-I T cells,higher survival capacity
